Assay results published in patent US9376449B2, “Indole carboxamide derivative” (Astellas Pharma Inc., priority 2012, dated 2016).
Where two headings read alike, the source gives them in different places.

Key:
human MT2 receptor = biological target: T1, human MT2 receptor (Homo sapiens, UniProt P49286); assay: Activation of human MT2 receptor in receptor-expressing HEK293 cells (intracellular Ca2+, FLIPR); format: cell-based; conditions: for Emax: HEK293, maximum reaction by ramelteon taken as 100%, solvent only 0%; for EC50: HEK293 cells stably expressing human MT2 and Gq/i chimeric G-protein, intracellular Ca2+ by FLIPR
T1 sequence (P49286 1-362): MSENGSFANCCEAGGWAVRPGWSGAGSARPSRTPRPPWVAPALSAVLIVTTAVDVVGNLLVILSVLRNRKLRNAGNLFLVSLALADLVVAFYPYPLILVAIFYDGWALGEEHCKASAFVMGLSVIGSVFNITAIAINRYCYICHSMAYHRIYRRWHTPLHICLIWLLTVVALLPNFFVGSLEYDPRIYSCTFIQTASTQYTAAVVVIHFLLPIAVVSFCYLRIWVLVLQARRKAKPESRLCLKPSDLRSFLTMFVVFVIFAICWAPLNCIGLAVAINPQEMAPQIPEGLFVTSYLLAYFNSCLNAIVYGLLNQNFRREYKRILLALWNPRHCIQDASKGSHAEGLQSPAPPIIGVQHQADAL
Procedure: (§1) (1) Isolation of Human MT1 and MT2 Receptor and Construction of Expression Vector
(§2) A human MT1 receptor gene (GenBank Accession No.: NM_005958.3) and a human MT2 receptor gene (GenBank Accession No.: NM_005959.3) were each introduced into an expression vector pCDNA3.1/Zeo (Invitrogen, Inc.).
(§3) (2) Construction of Cells Stably Expressing Human MT1 and Human MT2 Receptor
(§4) The introduction was carried out according to the attached instructions, using a Lipofectoamine (registered trademark) 2000 Reagent (Invitrogen, Inc.). Zeocin and hygromycin were used as a resistant drug, and the cell was incubated for 15 days at 0.02 mg/mL and 0.05 mg/mL, respectively, thereby acquiring drug-resistant clones.
(§5) (3) Measurement of Intracellular Ca^2+ Concentration by FLIPR (Registered Trademark)
(§6) The respective stably expressing cells were dispensed into 96-well poly-D-lysine-coated plates (Falcon Co.) to 40,000 cells/well the day before the experiment, and incubated overnight in a DMEM (Invitrogen, Inc.) medium including 10% FBS at 37° C. and 5% CO2. The medium was replaced with a loading buffer (washing solution (Hank's balanced salt solution (HBSS), 20 mM HEPES-NaOH, 2.5 mM probenecid) including Fluo-4AM (Dojindo Co.) at 4 μM), and incubated for 1 hour at 37° C. and 5% CO2. Thereafter, the cells were washed with a plate washer (ELx405, BIO-TEK Instrument, Inc.) set with the washing solution, and set in an intracellular Ca^2+ concentration measuring systems (FLIPR (registered trademark), Molecular Device Co.). The test compound was dissolved in the washing solution in advance, diluted to a final concentration of −12 to −5 log M, set in a FLIPR (registered trademark) device together with the cells, and added to the cells in the device. At this time, a change in the intracellular Ca^2+ concentrations was measured.
(§7) Ex represents Example No. of the test compound.

human MT1 receptor = human MT1 receptor (Homo sapiens, UniProt P48039); assay: Activation of human MT1 receptor in receptor-expressing HEK293 cells (intracellular Ca2+, FLIPR); format: cell-based; conditions: for EC50: HEK293 cells stably expressing human MT1 and Gq/i chimeric G-protein, intracellular Ca2+ by FLIPR
Sequence of human MT1 receptor (P48039 whole entry): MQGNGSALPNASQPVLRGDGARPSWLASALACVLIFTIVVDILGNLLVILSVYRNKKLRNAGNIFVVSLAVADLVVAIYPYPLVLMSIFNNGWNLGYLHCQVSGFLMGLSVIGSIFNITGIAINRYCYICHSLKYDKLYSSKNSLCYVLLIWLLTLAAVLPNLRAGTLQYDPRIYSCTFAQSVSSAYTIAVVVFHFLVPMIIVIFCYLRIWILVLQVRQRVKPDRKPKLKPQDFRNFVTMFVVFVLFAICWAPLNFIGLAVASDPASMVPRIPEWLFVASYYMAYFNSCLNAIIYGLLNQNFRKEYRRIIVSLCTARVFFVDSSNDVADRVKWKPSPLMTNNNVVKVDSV
Procedure: as §1, §2, §3, §4, §5, §6, §7

isolated urethra [1] = assay: Test confirming that urethra contractile action by ramelteon is through MT1 and/or MT2 receptor (Luzindole); set-up: species or system rat; conditions: for Second contractile rate by ramelteon (%): 20 minutes before ramelteon 1 μM, first contraction as 100%
Procedure: (2) Test for Confirming that Urethra Contractile Action is Action Through MT1 and/or MT2 Receptor
The urethra was isolated from an SD female rat having a body weight of 100 to 500 g. The isolated urethra was incised longitudinally to give a rectangular strip specimen having a width of about 3 mm, which was suspended in the muscle parallel to the circular to 10 mL of a tissue bath filled with a Krebs-Henseleit solution (pH 7.4). […] The resting tension was set to 0.5 g to record the isometric contraction. After the resting tension was stabilized, contraction was elicited by the addition of 10 μM phenylephrine. After washing and stabilizing, the test compound (ramelteon) at 1 μM was added to measure a contractile response. After washing and stabilizing, a solvent or Luzindole (purchased from Wako Pure Chemical Industries, Ltd.) (0.1 μM, 1 μM, or 10 μM) was added to the same specimen, and after 20 minutes, ramelteon at 1 μM was added again thereto to measure a contractile reaction. When the first contraction by ramelteon at 1 μM was taken as 100%, the second contractile rate by ramelteon was measured.

isolated urethra [2] = assay: Isolated urethra contractile action; set-up: species or system rat; conditions: test compound at 1 μM; contractile response by 10 μM phenylephrine as 100%; SD female rat urethra; read-out: Isolated urethra contraction (%)
Procedure: Test Example 2 Isolated Urethra Contractile Action
(1) Evaluation Test on Urethra Contractile Action of Test Compound Using Isolated Urethra
The urethra was isolated from an SD female rat having a body weight of 100 to 500 g. The isolated urethra was incised longitudinally to give a rectangular strip specimen having a width of about 3 mm, which was suspended in the circular muscle direction in 10 mL of a tissue bath filled with a Krebs-Henseleit solution (pH 7.4). The Krebs-Henseleit solution was bubbled with 95% O2 and 5% CO2, and kept at 37° C. The resting tension was set to 0.5 g to record the isometric contraction. After the resting tension was stabilized, contraction was elicited by the addition of 10 μM phenylephrine. After washing and stabilizing, the test compound was added cumulatively to a final concentration of −12 to −5 log M to measure a contractile response. By taking the contractile response by 10 μM phenylephrine as 100%, the ratio of the contractile response in the concentration of the test compound at 1 μM was calculated.
as §7

urethral pressure = assay: Effect of test compound on urethral pressure in anesthetized rats; format: in vivo, rat; conditions: urethane-anesthetized SD female rats
Source text: Test Example 3 Test to Evaluate Effect of Test Compound on Urethral Pressure
It has been reported that an increase in the urethra pressure is useful for the treatment of urinary incontinence, particularly stress urinary incontinence (for example, Drugs, 64, 14, 1503-1516 (2004)). In order to confirm whether the compound of the present invention increases the urethra pressure and thus is useful for the treatment of urinary incontinence, particularly stress urinary incontinence, the following tests were carried out.
SD female rats were anesthetized with urethane and subjected to laparotomy. Then, the bladder apex was incised and a catheter was inserted from the bladder apex. Further, the catheter tip was ligated and fixed to be located in the proximal urethra portion. The catheter was connected to a pressure transducer and an infusion pump. Further, a catheter for administrating the compound was fitted into the femoral vein. Physiological saline was continuously infused into the urethra and the perfusion pressure in the urethra was measured. After the urethral pressure was stabilized, the test compound that had been dissolved in physiological saline, or physiological saline including 5% dimethylacetamide and 0.5% Cremophor was administered intravenously at 0.1 mg/kg, and a change in urethral pressures was measured.
Further, the results of administering an active metabolite of midodrine (ST-1059: purchased from CHEMIZON) (J. Urology, 118, 980-982 (1977)) which is an α1 adrenoceptor agonist and has an effect on stress urinary incontinence in rat doses (0.01 mg/kg) presumed to correspond to the clinical doses are referenced and shown in the Tables below. The increment value in the urethra pressures of ramelteon and the Example compounds of the present invention at the time of administration are shown in Table 4. Ex represents Example No. of the test compound.

[3] = HEK293, maximum reaction by ramelteon taken as 100%, solvent only 0%, read-out: MT1 Emax (%)

For `CCCC(=O)NCCc1c(C(=O)NC)[nH]c2cc(Cl)c(OC)cc12` [Ex 34, 3-[2-(butyrylamino)ethyl]-6-chloro-5-methoxy-N-methyl-1H-indole-2-carboxamide], the Emax (human MT2 receptor) was 92%, the EC50 (human MT2 receptor) was 4.4 nM and the Emax (human MT1 receptor; [3]) was 75%. For the same compound, the EC50 (human MT1 receptor) was 32 nM.
For `CC(=O)NCCc1c(Cc2ccccc2)[nH]c2ccccc12` [Luzindole], the “Second contractile rate by ramelteon (%)” value (isolated urethra [1]; Luzindole 0.1 μM) was 88 ± 11%, the “Second contractile rate by ramelteon (%)” value (isolated urethra [1]; Luzindole 1 μM) was 75 ± 5% and the “Second contractile rate by ramelteon (%)” value (isolated urethra [1]; Luzindole 10 μM) was 61 ± 9%. The “inhibition of isolated urethra contractile action by ramelteon” value (isolated urethra [1]; treatment with Luzindole 0.1-10 μM, in words) was “inhibited in a concentration-dependent manner”.
In the case of `CCC(=O)NCCc1c(C(=O)NC)[nH]c2cc(F)c(OC)cc12` [Ex 36], the Emax (human MT2 receptor) is reported as 104%, the EC50 (human MT2 receptor) is reported as 18 nM and the Emax (human MT1 receptor; [3]) is reported as 121%. The EC50 (human MT1 receptor) was 10 nM, the activation at 1 µM (isolated urethra [2]) was 107% and the “Increment value in the urethra pressures (mmHg)” value (from here on “Increment value”) (urethral pressure; 0.1 mg/kg intravenously) was 7.3 ± 0.2 mmHg.
Compound `CNC(=O)c1[nH]c2c(F)cc(OC)cc2c1CCNC(=O)C(F)F` [Ex 53] has an Emax (human MT2 receptor) of 105%, an EC50 (human MT2 receptor) of 9.2 nM and an Emax (human MT1 receptor; [3]) of 103%. The EC50 (human MT1 receptor) was 19 nM and the “Increment value” value (urethral pressure; 0.1 mg/kg intravenously) was 10.5 ± 0.6 mmHg.
For `COc1ccc(OC)c(C(O)CN)c1` (stereo not drawn) [ST-1059, reference compound], the “Increment value” value (urethral pressure; 0.01 mg/kg (rat dose presumed to correspond to clinical dose)) was 4.9 ± 1.1 mmHg.
`COc1ccc2[nH]cc(CCNC(C)=O)c2c1` [Melatonin, melatonin, reference compound] was tested, and the Emax (human MT1 receptor; HEK293, read-out: MT1 Emax (%)) was 94%.
For `CNC(=O)c1[nH]c2ccc(OC)nc2c1CCNC(=O)C(F)F` [Ex 48], the Emax (human MT2 receptor) was 109%, the EC50 (human MT2 receptor) was 43 nM and the Emax (human MT1 receptor; [3]) was 122%. For the same compound, the EC50 (human MT1 receptor) was 12 nM and the “Increment value” value (urethral pressure; 0.1 mg/kg intravenously) was 7.3 ± 0.7 mmHg.
Compound `CNC(=O)c1[nH]c2cc(Cl)c(OC)cc2c1CCNC(C)=O` [Ex 12, 3-(2-acetamidoethyl)-6-chloro-5-methoxy-N-methyl-1H-indole-2-carboxamide] has an Emax (human MT2 receptor) of 70%, an EC50 (human MT2 receptor) of 12 nM and an Emax (human MT1 receptor; [3]) of 68%. It also gave an EC50 (human MT1 receptor) of 86 nM.
For `CCCC(=O)NCCc1c(C(=O)NC)[nH]c2cc(F)c(OC)cc12` [Ex 35], the Emax (human MT2 receptor) was 102%, the EC50 (human MT2 receptor) was 11 nM and the Emax (human MT1 receptor; [3]) was 110%. The EC50 (human MT1 receptor) was 3.2 nM, the activation at 1 µM (isolated urethra [2]) was 171% and the “Increment value” value (urethral pressure; 0.1 mg/kg intravenously) was 8.2 ± 1.6 mmHg.
`CCCC(=O)NCCc1c(C(=O)NC)[nH]c2ccc(OC)cc12` [Ex 32] gave an Emax (human MT2 receptor) of 111%, an EC50 (human MT2 receptor) of 31 nM and an Emax (human MT1 receptor; [3]) of 106%. For the same compound, the EC50 (human MT1 receptor) was 7.7 nM, the activation at 1 µM (isolated urethra [2]) was 143% and the “Increment value” value (urethral pressure; 0.1 mg/kg intravenously) was 10.8 ± 2.9 mmHg.
